Experimental data: patent publication US9597299B2, “Method for treating gefitinib-resistant non-small-cell lung cancer” (Macau University of Science and Technology, priority 2014, dated 2017)

Legend:
Assay type in all cases: cell-based
H1975 cells [1] = assay: relative cell viability, TMS with/without compound c, H1975
[2] = system: mammalian target of rapamycin (mTOR); assay: proteomic analysis of apoptosis markers; conditions: proteomics, gefitinib-resistant NSCLC cells, FIG. 3
Excerpt: FIG. 3 is a schematic diagram showing the proteomic analysis result of TMS on different markers involved in apoptosis of gefitinib-resistant non-small-cell lung cancer cells.

H1975 cells [3] = assay: cell morphology, flow cytometry and relative cell viability, TMS with/without JNK inhibitor, H1975; conditions: TMS alone, groups: control, FIG. 6
[4] = system: H1975 (EGFR double mutation) gefitinib-resistant NSCLC cells; assay: cell viability assay, H1975
Excerpt: (§1) Table 1 summarizes the IC50 values of five different cell lines treated with TMS.

EGFR PY1173 [5] = assay: immunoblot analysis of EGFR PY1173, A549 cell lysate; conditions: A549 cells
Protocol: (§2) Moreover, the inhibition of PY1173 activation happens as early as in 1 hour after TMS treatment.

H1975 cells [6] = assay: cell morphology and flow cytometry (apoptosis), H1975; conditions: gefitinib-resistant NSCLC cell lines (H1975), FIG. 2
[7] = system: H820 (EGFR double mutation) gefitinib-resistant NSCLC cells; assay: cell viability assay, H820; conditions: NCI-H820
Excerpt: as §1

[8] = system: BEAS-2B (normal epithelial cells); assay: cell viability assay, BEAS-2B; conditions: Homo sapiens
Excerpt: as §1

EGFR PY1173 [9] = assay: immunoblot analysis of EGFR PY1173, H1975 cell lysate
Protocol: as §2

[10] = system: A549 (EGFR wild-type) NSCLC cells; assay: cell viability assay, A549; conditions: Homo sapiens
Excerpt: as §1

[11] = system: H358 (EGFR wild-type) NSCLC cells; assay: cell viability assay, H358; conditions: Homo sapiens, NCI-H358
Excerpt: as §1

Row | SMILES | effect of compound c on the effect of TMS (H1975 cells [1]; H1975, FIG. 4) | effect on mTOR [2] | apoptosis induction / relative cell viability among four treatment groups (H1975 cells [3]) | selectivity for gefitinib-resistant NSCLC cells over normal and EGFR wild-type cells ([4]; H1975 and H820 versus BEAS-2B, A549, H358) | IC50 ([4]; Homo sapiens, NCI-H1975, H1975 (EGFR double mutation), cell viability) [nM] | inhibitory effect on EGFR (PY1173) (EGFR PY1173 [5]) | suppression of EGFR PY1173 (EGFR PY1173 [5]; 10-time higher concentration of TMS) | induction of apoptosis (H1975 cells [6]) | IC50 [7] [nM] | IC50 [8] [nM] | apoptosis induction / relative cell viability among four treatment groups (H1975 cells [1]; TMS alone (40 nM), groups: control, compound c, TMS, FIG. 4) | time to inhibition of PY1173 activation after TMS treatment (EGFR PY1173 [9]; H1975, fixed concentration of TMS) [h] | activation of EGFR PY1173 (EGFR PY1173 [9]; TMS at 40, 60 and 80 nM, gefitinib-resistant NSCLC cells (H1975)) | IC50 [10] [nM] | IC50 [11] [nM]
1 | c1cc(-c2cnn3cc(-c4ccc(OCCN5CCCCC5)cc4)cnc23)ccn1 [compound c, reference compound] | counteracts the effect of TMS | – | – | – | – | – | – | – | – | – | – | – | – | – | –
2 | COc1ccc(/C=C\c2cc(OC)c(OC)c(OC)c2)cc1 [TMS, (Z)3,4,5,4′-tetramethoxystilbene] | – | significantly inhibited | most effective in inducing apoptosis | selectivity on gefitinib-resistant NSCLC cells | 57.2 ± 13.5 | not detected | no suppression of EGFR PY1173 was observed | inducing apoptosis | 136 ± 35.9 | > 400 | most effective in inducing apoptosis | ≤ 1 | inhibits the activation of EGFR PY1173 | > 400 | > 400
